# From PMC4344250, “Characterization of the Major Light-Harvesting Complexes (LHCBM) of the Green Alga Chlamydomonas reinhardtii” (PLoS ONE, 2015)
# Columns and labels:
# [1] = molecular target: T1, LHCBM9 (Chlamydomonas reinhardtii, UniProt Q8S3T9); test: in vitro reconstitution, Ni-affinity and sucrose gradient, HPLC of bound pigments; type: binding; conditions: C. reinhardtii pigment mix, Chl a/b 2.5; stoichiometry, not an affinity
# Text: in vitro reconstitution, Ni-affinity and sucrose gradient, HPLC of bound pigments on LHCBM9
# [2] = molecular target: T2, LHCBM1 (Chlamydomonas reinhardtii, UniProt Q93VE0); test: as above; type: binding; conditions: C. reinhardtii pigment mix, Chl a/b 2.5, stoichiometry, not an affinity
# T2 construct: gene LhcII-4
# T2 sequence (Q93VE0 entry or part of it): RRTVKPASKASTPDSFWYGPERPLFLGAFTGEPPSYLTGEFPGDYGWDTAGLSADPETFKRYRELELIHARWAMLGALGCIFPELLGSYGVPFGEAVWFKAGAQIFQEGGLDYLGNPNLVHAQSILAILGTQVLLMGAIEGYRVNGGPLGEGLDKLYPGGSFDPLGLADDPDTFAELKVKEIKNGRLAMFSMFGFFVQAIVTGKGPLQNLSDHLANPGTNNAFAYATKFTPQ
# Text: in vitro reconstitution, Ni-affinity and sucrose gradient, HPLC of bound pigments on LHCBM1
# [3] = molecular target: T3, LHCBM5 (Chlamydomonas reinhardtii, UniProt Q9ZSJ4); test: as above; type: binding; conditions: C. reinhardtii pigment mix, Chl a/b 2.5; stoichiometry, not an affinity
# T3 construct: gene Lhcb3
# T3 sequence (Q9ZSJ4 entry or part of it): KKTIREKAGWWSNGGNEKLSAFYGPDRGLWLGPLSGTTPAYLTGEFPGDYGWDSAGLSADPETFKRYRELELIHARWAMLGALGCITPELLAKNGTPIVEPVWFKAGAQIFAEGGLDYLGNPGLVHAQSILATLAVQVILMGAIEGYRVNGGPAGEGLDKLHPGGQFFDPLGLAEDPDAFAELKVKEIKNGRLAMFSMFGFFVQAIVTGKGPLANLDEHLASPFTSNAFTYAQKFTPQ
# Text: in vitro reconstitution, Ni-affinity and sucrose gradient, HPLC of bound pigments on LHCBM5
# [4] = molecular target: T4, LHCBM2 (Chlamydomonas reinhardtii, UniProt Q93WE0); test: as above; type: binding; conditions: C. reinhardtii pigment mix, Chl a/b 2.5; stoichiometry, not an affinity
# T4 construct: gene LhcII-3
# T4 sequence (Q93WE0 entry or part of it): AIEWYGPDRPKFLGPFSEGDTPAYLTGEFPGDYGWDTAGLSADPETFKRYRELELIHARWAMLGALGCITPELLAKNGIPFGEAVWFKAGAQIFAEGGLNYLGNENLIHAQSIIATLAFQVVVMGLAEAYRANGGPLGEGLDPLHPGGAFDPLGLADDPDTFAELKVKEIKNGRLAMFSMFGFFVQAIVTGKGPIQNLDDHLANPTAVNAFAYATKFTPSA
# Text: in vitro reconstitution, Ni-affinity and sucrose gradient, HPLC of bound pigments on LHCBM2
# [5] = molecular target: T5, LHCBM6 (Chlamydomonas reinhardtii, UniProt A8J287); test: as above; type: binding; conditions: C. reinhardtii pigment mix, Chl a/b 2.5; stoichiometry, not an affinity
# T5 construct: gene CHLRE_06g285250v5
# T5 sequence (A8J287 entry or part of it): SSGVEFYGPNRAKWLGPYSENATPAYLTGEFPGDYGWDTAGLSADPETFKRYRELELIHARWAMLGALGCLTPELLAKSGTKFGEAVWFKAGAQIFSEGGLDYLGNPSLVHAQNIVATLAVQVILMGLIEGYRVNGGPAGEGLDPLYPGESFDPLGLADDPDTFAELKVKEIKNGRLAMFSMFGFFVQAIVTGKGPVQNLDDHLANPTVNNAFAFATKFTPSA
# Text: in vitro reconstitution, Ni-affinity and sucrose gradient, HPLC of bound pigments on LHCBM6
# [6] = molecular target: LHCBM2/7 (type III major light-harvesting complex protein of Chlamydomonas reinhardtii) (Chlamydomonas reinhardtii); test: sucrose density gradient ultracentrifugation + non-denaturing isoelectrofocusing (composition by SDS-PAGE); thylakoids solubilised with alpha-DM; trimeric band (B3) of the sucrose gradient separated by flat-bed ndIEF (ampholites pH 3.5-5, 0.06% beta-DM, 4 °C, 15 h); fractions run again as single bands on sucrose gradients (0.06% beta-DM, 20 mM Hepes pH 7.5); proteins identified by Tricine SDS-PAGE
# [7] = molecular target: T2, LHCBM1; test: in vitro reconstitution, Ni-affinity and sucrose gradient, HPLC of bound pigments; type: binding; conditions: C. reinhardtii pigment mix, measured only as Neo+loro sum
# [8] = molecular target: T1, LHCBM9; test: as above; type: binding; conditions: C. reinhardtii pigment mix; measured only as Neo+loro sum
# T1 sequence (Q8S3T9 entry or part of it): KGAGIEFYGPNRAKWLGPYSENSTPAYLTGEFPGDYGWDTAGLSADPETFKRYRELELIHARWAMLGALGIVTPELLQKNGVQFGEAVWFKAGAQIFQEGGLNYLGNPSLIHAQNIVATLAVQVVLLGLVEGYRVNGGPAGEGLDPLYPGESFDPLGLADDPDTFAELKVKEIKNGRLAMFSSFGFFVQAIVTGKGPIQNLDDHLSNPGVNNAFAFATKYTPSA
molecule,measurement,setting,value
CC1=C[C@H](O)CC(C)(C)[C@H]1/C=C/C(C)=C/C=C/C(C)=C/C=C/C=C(C)/C=C/C=C(C)/C=C/C1=C(C)C[C@@H](O)CC1(C)C [lutein],Lut/mon,[1],1.19±0.06 mol per monomer (normalised to 14 Chls)
same,Lut/mon,[2],1.32±0.01 mol per monomer (normalised to 14 Chls)
same,Lut/mon,[3],1.38±0.01 mol per monomer (normalised to 14 Chls)
same,Lut/mon,[4],1.43±0.04 mol per monomer (normalised to 14 Chls)
same,Lut/mon,[5],1.25±0.01 mol per monomer (normalised to 14 Chls)
LHCBM2/7 (type III major light-harvesting complex protein of Chlamydomonas reinhardtii) (natural protein),stoichiometry N,[6],3
CC(/C=C/C=C(C)/C=C/[C@@]12O[C@]1(C)C[C@@H](O)CC2(C)C)=C\C=C\C=C(C)\C=C\C=C(C)\C=C\[C@@]12O[C@]1(C)C[C@@H](O)CC2(C)C [violaxanthin],Vio/mon,[1],0.24±0.01 mol per monomer (normalised to 14 Chls)
same,Vio/mon,[2]; V1 site suggested,0.11±0.01 mol per monomer (normalised to 14 Chls)
CC1=C[C@H](O)CC(C)(C)[C@H]1/C=C/C(C)=C/C=C/C(C)=C/C=C/C=C(C)/C=C/C=C(/C=C/C1=C(C)C[C@@H](O)CC1(C)C)CO [loroxanthin],"in vitro reconstitution, Ni-affinity and sucrose gradient, HPLC of bound pigment",[7]; internal carotenoid site (L1 proposed),"All LHCBMs contain lutein, loroxanthin and neoxanthin and a small amount of violaxanthin"
same,"in vitro reconstitution, Ni-affinity and sucrose gradient, HPLC of bound pigment",[8],"All LHCBMs contain lutein, loroxanthin and neoxanthin and a small amount of violaxanthin"
CC(=C/C=C/C(C)=C/C=C/C=C(C)/C=C/C=C(\C)C=C=C1C(C)(C)C[C@H](O)C[C@@]1(C)O)/C=C/[C@@]12O[C@]1(C)C[C@@H](O)CC2(C)C [neoxanthin],"in vitro reconstitution, Ni-affinity and sucrose gradient, HPLC of bound pigment",[7]; N1 site suggested,"All LHCBMs contain lutein, loroxanthin and neoxanthin and a small amount of violaxanthin"
